In US7297771B2 (priority 1992, dated 2007):

What was measured:
[1] = molecular target: K56 receptor (mouse delta opioid receptor) (Mus musculus, UniProt P32300); assay: biochemical
[2] = molecular target: T1, delta opioid receptor of NG 108-15 cells (Mus musculus, UniProt P32300); assay: biochemical; type: binding
T1 construct: NG 108-15 cells, which express the delta opioid receptor naturally; endogenous in cells; host or cells: NG 108-15 cells (membranes)
T1 sequence (P32300 whole entry): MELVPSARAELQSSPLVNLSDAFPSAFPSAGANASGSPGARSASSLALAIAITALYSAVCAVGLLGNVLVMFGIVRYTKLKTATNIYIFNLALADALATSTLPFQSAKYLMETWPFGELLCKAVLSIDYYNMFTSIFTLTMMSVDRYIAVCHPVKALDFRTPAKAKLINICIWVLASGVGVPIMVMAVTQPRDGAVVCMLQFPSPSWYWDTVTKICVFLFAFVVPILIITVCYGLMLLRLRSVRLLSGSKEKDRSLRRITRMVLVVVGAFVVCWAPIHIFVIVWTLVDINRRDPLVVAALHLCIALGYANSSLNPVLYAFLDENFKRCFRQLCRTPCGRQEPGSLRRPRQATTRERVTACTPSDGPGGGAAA

Sequence of K56 receptor (mouse delta opioid receptor) (P32300 whole entry): as above

Compound | Ki ([1]; PKi Cos K56) [nM] | Ki ([1]; inhibition constant Ki) [nM] | Ki [2] [nM]
CCC12CCN(CC3(O)CC3)C(Cc3ccc(O)cc31)C2(C)C (stereo not shown) [Bremazocine, bremazocine] | 5.62 | 5.7 | 1.78
CN1CC[C@]23CCCC[C@H]2[C@H]1Cc1ccc(O)cc13 [Levorphanol, levorphanol] | – | 20.9 | –
